Assay results reported in patent US20230285405A1, “Pharmaceuticals for Treating or Preventing Nidoviruses and Picornaviruses” (priority 2020, published 2023).
Where a name gives a salt, the structure may show the parent alone. Read-outs that look alike come from different tables or passages of the source.

Experiments:
OC43 [1] = test: Dose-response analysis of OC43 infection; assay type: cell-based, human beta coronavirus OC43
Method: Dose-response analysis of OC43 infection was done similarly to the drug screening, except cells were seeded at a concentration of 5,000 cells per well and the media contained 2% BCS instead of 10% BCS. OC43 staining was performed 2 days after infection and analyzed similarly to what was described for the drug screening. A sigmoid fit was used to extract EC50 values using Matlab.

OC43 [2] = test: Drug screening: OC43 nucleoprotein staining in infected A549-mRuby cells; assay type: cell-based, human beta coronavirus OC43; details: for activity at 10 µM: Betacoronavirus 1, OC43, 96 h
Method in brief: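 Repurposing screen: drugs at 10 μM final added 1 h after OC43 infection (MOI 0.3) of H2B-mRuby A549 cells, 4-day incubation at 33° C. Cell counts imaged at day 0 and day 4; nucleoprotein staining per cell normalized to untreated infected wells, hit threshold >3 SD in duplicate screens, non-toxic.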

A549-mRuby cells = test: Drug screening: effect on cell growth (cell number day 4 / day 0); details: 10 μM drug; for Growth_1: number of cells at day 4 divided by number of cells at day 0 / toxic_1: repeat #1; for Growth_2: number of cells at day 4 divided by number of cells at day 0 / toxic_2: repeat #2
Method in brief: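 Growth was scored as day 4/day 0 cell count from images of OC43-infected (MOI 0.3) A549-mRuby nuclear-reporter cells. Compounds were added at 10 μM final after a 1 h infection at 33° C, followed by 4 days of culture at 33° C in two independent screens.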

SARS-CoV-2 = test: microbe, parasite or virus in culture; assay type: cell-based, SARS-CoV-2 (nCoV/Washington/1/2020); details: for EC50: read-out: EC50 SARS2
[3] = A549-mRuby cells, staining 2 days after infection, read-out: EC50 OC43
[4] = 10 μM drug, MOI 0.3, 4 days, OC43 staining normalized to no-drug controls, mean of the two screen repeats
[5] = 10 μM drug, MOI 0.3, 4 days, normalized to no-drug controls in the same plate, repeat #1
[6] = 10 μM drug, MOI 0.3, 4 days, normalized to no-drug controls in the same plate, repeat #2
[7] = Betacoronavirus 1, OC43, 48 h, read-out: EC50 OC43, A549-mRuby cells, staining 2 days after infection
[8] = 10 μM drug, MOI 0.3, 4 days, OC43 staining normalized to no-drug controls, mean of the two screen repeats, read-out: OC43_mean
[9] = 10 μM drug, MOI 0.3, 4 days, normalized to no-drug controls in the same plate, repeat #1, read-out: OC43_1: % staining of OC43 in screen repeat #1
[10] = 10 μM drug, MOI 0.3, 4 days, normalized to no-drug controls in the same plate, repeat #2, read-out: OC43_2: % staining of OC43 in screen repeat #2
[11] = Severe acute respiratory syndrome coronavirus 2
[12] = read-out: OC43_1: % staining of OC43 in screen repeat #1
[13] = read-out: OC43_2: % staining of OC43 in screen repeat #2

Compound | hit_1 (OC43 [2]; 10 μM drug, repeat #1) | hit_2 (OC43 [2]; 10 μM drug, repeat #2) | Growth_1: number of cells at day 4 divided by number of cells at day 0 (A549-mRuby cells) | toxic_1 (A549-mRuby cells) | Growth_2: number of cells at day 4 divided by number of cells at day 0 (A549-mRuby cells) | toxic_2 (A549-mRuby cells) | activity at 10 µM (OC43 [2]; [8]) [%] | activity at 10 µM (OC43 [2]; [9]) [%] | activity at 10 µM (OC43 [2]; [10]) [%] | also measured
Erythromycin Cyclocarbonate | 1 | 1 | 5.7 | 0 | 6.0 | 0 |  |  |  | EC50 (OC43 [1]; [3]): > 10 µM; OC43_mean (OC43 [2]; [4]): 18.9%; OC43_1: % staining of OC43 in screen repeat #1 (OC43 [2]; [5]): 16.7%; OC43_2: % staining of OC43 in screen repeat #2 (OC43 [2]; [6]): 21.1%
CCCCOC(=O)c1ccc(N)cc1 [Butamben] | 1 | 1 | 3.9 | 0 | 4.7 | 0 | 4.9 | 3.8 | 6.1 | EC50 (OC43 [1]; [7]): 3.1 µM; EC50 (SARS-CoV-2; [11]): > 10 µM
CN1CCCC(n2nc(Cc3ccc(Cl)cc3)c3ccccc3c2=O)CC1.O (stereo not drawn) [Azelastine HCl] | 1 | 1 | 4.1 | 0 | 3.2 | 0 | 19.1 | 19.6 | 18.5 | EC50 (OC43 [1]; [7]): 3.7 µM; inhibition of OC43 infection (in words) (OC43 [1]; dose-response): inhibits; inhibition of SARS-CoV-2 infection (in words) (SARS-CoV-2): inhibits; EC50 (SARS-CoV-2; [11]): 2.4 µM
O=C(O)CCC(=O)O.O=C(O[C@H]1CN2CCC1CC2)N1CCc2ccccc2[C@@H]1c1ccccc1 [Solifenacin succinate] | 1 | 1 | 5.0 | 0 | 5.0 | 0 |  |  |  | EC50 (OC43 [1]; Betacoronavirus 1, OC43, 48 h, read-out: EC50 OC43): 4.8 µM; activity at 10 µM (OC43 [2]; [12]): 13%; activity at 10 µM (OC43 [2]; [13]): 11.3%; activity at 10 µM (OC43 [2]; read-out: OC43_mean): 12.1%; EC50 (SARS-CoV-2; [11]): 3.6 µM
OCCN1CCN(CC/C=C2/c3ccccc3Sc3ccc(C(F)(F)F)cc32)CC1 [Flupenthixol dihydrochloride] |  |  |  |  |  |  |  |  |  | EC50 (OC43 [1]; read-out: EC50 OC43): 1.8 µM; EC50 (SARS-CoV-2): 0.56 µM
CCC(CC)COC(=O)[C@H](C)N[P@](=O)(OC[C@H]1O[C@@](C#N)(c2ccc3c(N)ncnn23)[C@H](O)[C@@H]1O)Oc1ccccc1 [Remdesivir] |  |  |  |  |  |  |  |  |  | EC50 (OC43 [1]; [3]): 0.96 µM; EC50 (OC43 [1]; Betacoronavirus 1, OC43, 48 h, A549-mRuby cells, staining 2 days after infection, read-out: EC50 OC43): 0.9 µM; EC50 (SARS-CoV-2; [11]): 0.1 µM
CC(CN(C)C)CN1c2ccccc2CCc2ccccc21 (stereo not drawn) [Trimipramine maleate] |  |  |  |  |  |  |  |  |  | EC50 (OC43 [1]; [7]): 3.8 µM; EC50 (SARS-CoV-2; [11]): 1.5 µM
CN(C)CCCN1c2ccccc2CCc2ccccc21.O [Imipramine HCl] | 1 | 1 | 4.0 | 0 | 4.2 | 0 |  | 6.7 | 22.3 | EC50 (OC43 [1]; [7]): 6 µM; activity at 10 µM (OC43 [2]; read-out: OC43_mean, 10 μM drug, MOI 0.3, 4 days, OC43 staining normalized to no-drug controls, mean of the two screen repeats): 14.5%
Cc1ccc(O)c([C@H](CCN(C(C)C)C(C)C)c2ccccc2)c1.O=C(O)C(O)C(O)C(=O)O [Tolterodine tartrate] | 1 | 1 | 5.0 | 0 | 5.1 | 0 | 16.6 | 21.7 | 11.6 | EC50 (OC43 [1]; [7]): 7 µM
O=C(O[C@H]1CN2CCC1CC2)N1CCc2ccccc2[C@@H]1c1ccccc1 [Solifenacin] | 1 | 1 | 4.3 | 0 | 3.4 | 0 | 25 | 20.4 | 29.6 | 
OCCOCCN1CCN(C2=Nc3ccccc3Sc3ccccc32)CC1 [Quetiapine Fumarate] |  |  | 3.6 | 0 | 3.7 | 0 |  |  |  | hit_1 (OC43 [2]): 1; hit_2 (OC43 [2]): 1; activity at 10 µM (OC43 [2]; [12]): 34.5%; activity at 10 µM (OC43 [2]; [13]): 61.5%; activity at 10 µM (OC43 [2]; read-out: OC43_mean): 48%
COc1ccc(NC(=O)c2ccc(C(=N)N(C)C)cc2)c(C(=O)Nc2ccc(Cl)cn2)c1 [Betrixaban] | 1 | 1 | 5.3 | 0 | 5.5 | 0 |  |  |  | OC43_mean (OC43 [2]; [4]): 32.0%; OC43_1: % staining of OC43 in screen repeat #1 (OC43 [2]; [5]): 30.2%; OC43_2: % staining of OC43 in screen repeat #2 (OC43 [2]; [6]): 33.7%
CN(C)CCC=C1c2ccccc2C=Cc2ccccc21 [Cyclobenzaprine HCl] | 1 | 1 | 3.3 | 0 | 2.1 | 0 | 46.5 | 45.2 | 47.7 | 
N=C(N)N/N=C/c1c(Cl)cccc1Cl [Guanabenz Acetate] | 1 | 1 | 5.3 | 0 | 4.4 | 0 | 34.6 | 31.1 | 38.1 | 
CN1CCN(CCCN2c3ccccc3Sc3ccc(Cl)cc32)CC1 [Prochlorperazine Dimaleate] | 1 | 1 | 3.1 | 0 | 3.0 | 0 | 22.6 | 20.2 | 25 | 
CS(=O)(=O)CCNCc1ccc(-c2ccc3ncnc(Nc4ccc(OCc5cccc(F)c5)c(Cl)c4)c3c2)o1 [Lapatinib ditosylate monohydrate] | 1 | 1 |  | 0 |  | 0 | 16.6 |  | 9.5 | OC43_1: % staining of OC43 in screen repeat #1 (OC43 [2]; 10 μM drug, MOI 0.3, 4 days, normalized to no-drug controls in the same plate, repeat #1, ditosylate monohydrate): 23.8%; Growth_1: number of cells at day 4 divided by number of cells at day 0 (A549-mRuby cells; ditosylate monohydrate): 4.2; Growth_2: number of cells at day 4 divided by number of cells at day 0 (A549-mRuby cells; ditosylate monohydrate): 4.2
COc1ccc(NC(=O)c2ccc(C(=N)N(C)C)cc2)c(C(=O)Nc2ccc(Cl)cn2)c1 [Betrixaban maleate] | 1 | 1 | 4.6 | 0 | 5.7 | 0 | 26.9 | 32 | 21.8 | 
CN1C2CCC1CC(OC(c1ccccc1)c1ccccc1)C2.CS(=O)(=O)O (stereo not drawn) [Benztropine mesylate] | 1 | 1 | 4.4 | 0 | 5.1 | 0 | 10.1 | 7.4 | 12.8 | 
CN(C)CCC=C1c2ccccc2COc2ccccc21 [Doxepin HCl] | 1 | 1 | 4.9 | 0 | 5.7 | 0 | 32.6 | 29.2 | 36.1 | 
CN1CCCCC1CCN1c2ccccc2Sc2ccc([S+](C)[O-])cc21 (stereo not drawn) [Mesoridazine Besylate] | 1 | 1 | 4.7 | 0 | 4.7 | 0 | 20.3 | 15.6 | 25 | 
